Data taken from publication doi:10.1101/2024.08.19.608619, “Discovery of potent SARS-CoV-2 nsp3 macrodomain inhibitors uncovers lack of translation to cellular antiviral response” (bioRxiv, 2024).
≈ marks a conversion by molar mass, not a printed value.

Assay: Hepatic microsomal stability, HLM
Format: in vitro ADME, human
Settings: In vitro human liver microsomal stability

SMILES | clint [µL/min/mg] | perc_remaining [%] | t_half [min]
CC(C)[C@@H](Nc1ncnc2[nH]c(-c3cnn(CC(N)=O)c3)cc12)c1ccc2c(n1)OCCO2 [ASAP-0008646] | 14.0 | 77.0 | 120.2
CC(C)[C@@H](Nc1ncnc2[nH]c(-c3cnn(C)c3C#N)cc12)c1ccc2c(c1)S(=O)(=O)CCC2 [ASAP-0008651] | 490.0 | 1.0 | 3.4
CC(C)[C@@H](Nc1ncnc2[nH]c(-c3cnn(C)c3)cc12)c1ccc2c(c1)S(=O)(=O)CCC2 [ASAP-0008678] | 141.0 | 10.0 | 11.9
CNC(=O)c1cc2c(N[C@@H](c3ccc4c(c3)S(=O)(=O)CCC4)C(C)C)ncnc2[nH]1 [ASAP-0008685] | 77.0 | 25.0 | 21.7
CNCc1cc(-c2cc3c(N[C@@H](c4ccc5c(c4)S(=O)(=O)CCC5)C(C)C)ncnc3[nH]2)co1 [ASAP-0010745] | 57.0 | 40.0 | 29.4
CC(C)[C@H](Nc1ncnc2[nH]c(-c3cnn(C)c3C#N)cc12)c1ccc2c(c1)OCCO2 [ASAP-0010980] | 706.0 | 1.0 | 2.4
CC(C)[C@@H](Nc1ncnc2[nH]c(-c3cnn(C)c3C#N)cc12)c1ccc2c(c1)OCCO2 [ASAP-0011033] | 47.0 | 46.0 | 35.4

Same assay, conditions: In vitro human liver microsomal stability; no cofactor

SMILES | perc_remaining_no_cofactor [%]
CC(C)[C@@H](Nc1ncnc2[nH]c(-c3cnn(CC(N)=O)c3)cc12)c1ccc2c(n1)OCCO2 [ASAP-0008646] | 95.0
CC(C)[C@@H](Nc1ncnc2[nH]c(-c3cnn(C)c3C#N)cc12)c1ccc2c(c1)S(=O)(=O)CCC2 [ASAP-0008651] | 94.0
CC(C)[C@@H](Nc1ncnc2[nH]c(-c3cnn(C)c3)cc12)c1ccc2c(c1)S(=O)(=O)CCC2 [ASAP-0008678] | 102.0
CNC(=O)c1cc2c(N[C@@H](c3ccc4c(c3)S(=O)(=O)CCC4)C(C)C)ncnc2[nH]1 [ASAP-0008685] | 101.0
CNCc1cc(-c2cc3c(N[C@@H](c4ccc5c(c4)S(=O)(=O)CCC5)C(C)C)ncnc3[nH]2)co1 [ASAP-0010745] | 110.0
CC(C)[C@H](Nc1ncnc2[nH]c(-c3cnn(C)c3C#N)cc12)c1ccc2c(c1)OCCO2 [ASAP-0010980] | 103.0
CC(C)[C@@H](Nc1ncnc2[nH]c(-c3cnn(C)c3C#N)cc12)c1ccc2c(c1)OCCO2 [ASAP-0011033] | 101.0

Assay: Hepatic microsomal stability, MLM
Format: in vitro ADME
Settings: In vitro mouse liver microsomal stability

SMILES | clint [µL/min/mg] | perc_remaining [%] | t_half [min]
CC(C)[C@@H](Nc1ncnc2[nH]c(-c3cnn(CC(N)=O)c3)cc12)c1ccc2c(n1)OCCO2 [ASAP-0008646] | 12.0 | 83.0 | 145.2
CC(C)[C@@H](Nc1ncnc2[nH]c(-c3cnn(C)c3C#N)cc12)c1ccc2c(c1)S(=O)(=O)CCC2 [ASAP-0008651] | 440.0 | 0.0 | 3.8
CC(C)[C@@H](Nc1ncnc2[nH]c(-c3cnn(C)c3)cc12)c1ccc2c(c1)S(=O)(=O)CCC2 [ASAP-0008678] | 155.0 | 7.0 | 10.8
CNC(=O)c1cc2c(N[C@@H](c3ccc4c(c3)S(=O)(=O)CCC4)C(C)C)ncnc2[nH]1 [ASAP-0008685] | 46.0 | 47.0 | 36.5
CNCc1cc(-c2cc3c(N[C@@H](c4ccc5c(c4)S(=O)(=O)CCC5)C(C)C)ncnc3[nH]2)co1 [ASAP-0010745] | 52.0 | 41.0 | 32.2
CC(C)[C@H](Nc1ncnc2[nH]c(-c3cnn(C)c3C#N)cc12)c1ccc2c(c1)OCCO2 [ASAP-0010980] | 257.0 | 2.0 | 6.5
CC(C)[C@@H](Nc1ncnc2[nH]c(-c3cnn(C)c3C#N)cc12)c1ccc2c(c1)OCCO2 [ASAP-0011033] | 129.0 | 13.0 | 13.0

Same assay, conditions: In vitro mouse liver microsomal stability, no cofactor

SMILES | perc_remaining_no_cofactor [%]
CC(C)[C@@H](Nc1ncnc2[nH]c(-c3cnn(CC(N)=O)c3)cc12)c1ccc2c(n1)OCCO2 [ASAP-0008646] | 104.0
CC(C)[C@H](Nc1ncnc2[nH]c(-c3cnn(C)c3C#N)cc12)c1ccc2c(c1)OCCO2 [ASAP-0010980] | 113.0
CC(C)[C@@H](Nc1ncnc2[nH]c(-c3cnn(C)c3C#N)cc12)c1ccc2c(c1)OCCO2 [ASAP-0011033] | 106.0

Same assay, conditions: In vitro mouse liver microsomal stability; no cofactor

SMILES | perc_remaining_no_cofactor [%]
CC(C)[C@@H](Nc1ncnc2[nH]c(-c3cnn(C)c3C#N)cc12)c1ccc2c(c1)S(=O)(=O)CCC2 [ASAP-0008651] | 96.0
CC(C)[C@@H](Nc1ncnc2[nH]c(-c3cnn(C)c3)cc12)c1ccc2c(c1)S(=O)(=O)CCC2 [ASAP-0008678] | 102.0
CNC(=O)c1cc2c(N[C@@H](c3ccc4c(c3)S(=O)(=O)CCC4)C(C)C)ncnc2[nH]1 [ASAP-0008685] | 100.0
CNCc1cc(-c2cc3c(N[C@@H](c4ccc5c(c4)S(=O)(=O)CCC5)C(C)C)ncnc3[nH]2)co1 [ASAP-0010745] | 108.0

Assay: LogD
Settings: pH 7.4; In vitro LogD

SMILES | logd
CC(C)[C@@H](Nc1ncnc2[nH]c(-c3cnn(CC(N)=O)c3)cc12)c1ccc2c(n1)OCCO2 [ASAP-0008646] | 2.4
CC(C)[C@@H](Nc1ncnc2[nH]c(-c3cnn(C)c3C#N)cc12)c1ccc2c(c1)S(=O)(=O)CCC2 [ASAP-0008651] | 3.6
CC(C)[C@@H](Nc1ncnc2[nH]c(-c3cnn(C)c3)cc12)c1ccc2c(c1)S(=O)(=O)CCC2 [ASAP-0008678] | 3.3
CNC(=O)c1cc2c(N[C@@H](c3ccc4c(c3)S(=O)(=O)CCC4)C(C)C)ncnc2[nH]1 [ASAP-0008685] | 2.4
CNCc1cc(-c2cc3c(N[C@@H](c4ccc5c(c4)S(=O)(=O)CCC5)C(C)C)ncnc3[nH]2)co1 [ASAP-0010745] | 2.1
CC(C)[C@H](Nc1ncnc2[nH]c(-c3cnn(C)c3C#N)cc12)c1ccc2c(c1)OCCO2 [ASAP-0010980] | 3.3
CC(C)[C@@H](Nc1ncnc2[nH]c(-c3cnn(C)c3C#N)cc12)c1ccc2c(c1)OCCO2 [ASAP-0011033] | 3.4

Assay: In vitro kinetic solubility
Settings: In vitro kinetic solubility, ph 7.4

SMILES | solubility_mean [µM]
CC(C)[C@@H](Nc1ncnc2[nH]c(-c3cnn(CC(N)=O)c3)cc12)c1ccc2c(n1)OCCO2 [ASAP-0008646] | 385 (≈ 173 µg/mL)
CC(C)[C@@H](Nc1ncnc2[nH]c(-c3cnn(C)c3C#N)cc12)c1ccc2c(c1)S(=O)(=O)CCC2 [ASAP-0008651] | 34 (≈ 16.2 µg/mL)
CC(C)[C@@H](Nc1ncnc2[nH]c(-c3cnn(C)c3)cc12)c1ccc2c(c1)S(=O)(=O)CCC2 [ASAP-0008678] | 94 (≈ 42.4 µg/mL)
CNC(=O)c1cc2c(N[C@@H](c3ccc4c(c3)S(=O)(=O)CCC4)C(C)C)ncnc2[nH]1 [ASAP-0008685] | 369 (≈ 158 µg/mL)
CNCc1cc(-c2cc3c(N[C@@H](c4ccc5c(c4)S(=O)(=O)CCC5)C(C)C)ncnc3[nH]2)co1 [ASAP-0010745] | 321 (≈ 154 µg/mL)
CC(C)[C@H](Nc1ncnc2[nH]c(-c3cnn(C)c3C#N)cc12)c1ccc2c(c1)OCCO2 [ASAP-0010980] | 15 (≈ 6.44 µg/mL)
CC(C)[C@@H](Nc1ncnc2[nH]c(-c3cnn(C)c3C#N)cc12)c1ccc2c(c1)OCCO2 [ASAP-0011033] | 20 (≈ 8.59 µg/mL)

Assay: Permeability Papp (AB) MDR1/MDCKII
Settings: In vitro MDR1-MDCKII permeability, A to B, mean

SMILES | papp_a_to_b_mean [×10⁻⁶ cm/s]
CC(C)[C@@H](Nc1ncnc2[nH]c(-c3cnn(CC(N)=O)c3)cc12)c1ccc2c(n1)OCCO2 [ASAP-0008646] | 2.46
CC(C)[C@@H](Nc1ncnc2[nH]c(-c3cnn(C)c3C#N)cc12)c1ccc2c(c1)S(=O)(=O)CCC2 [ASAP-0008651] | 1.97
CC(C)[C@@H](Nc1ncnc2[nH]c(-c3cnn(C)c3)cc12)c1ccc2c(c1)S(=O)(=O)CCC2 [ASAP-0008678] | 1.73
CNC(=O)c1cc2c(N[C@@H](c3ccc4c(c3)S(=O)(=O)CCC4)C(C)C)ncnc2[nH]1 [ASAP-0008685] | 0.46
CNCc1cc(-c2cc3c(N[C@@H](c4ccc5c(c4)S(=O)(=O)CCC5)C(C)C)ncnc3[nH]2)co1 [ASAP-0010745] | 1.61

Same assay, conditions: In vitro MDR1-MDCKII permeability, A to B, no inhibitor

SMILES | papp_a_to_b_mean [×10⁻⁶ cm/s]
CC(C)[C@H](Nc1ncnc2[nH]c(-c3cnn(C)c3C#N)cc12)c1ccc2c(c1)OCCO2 [ASAP-0010980] | 5.56
CC(C)[C@@H](Nc1ncnc2[nH]c(-c3cnn(C)c3C#N)cc12)c1ccc2c(c1)OCCO2 [ASAP-0011033] | 5.11

Same assay, conditions: In vitro MDR1-MDCKII permeability, recovery A to B, mean

SMILES | perc_recovery_a_to_b_mean [%]
CC(C)[C@@H](Nc1ncnc2[nH]c(-c3cnn(CC(N)=O)c3)cc12)c1ccc2c(n1)OCCO2 [ASAP-0008646] | 73.0
CC(C)[C@@H](Nc1ncnc2[nH]c(-c3cnn(C)c3C#N)cc12)c1ccc2c(c1)S(=O)(=O)CCC2 [ASAP-0008651] | 81.6
CC(C)[C@@H](Nc1ncnc2[nH]c(-c3cnn(C)c3)cc12)c1ccc2c(c1)S(=O)(=O)CCC2 [ASAP-0008678] | 85.6
CNC(=O)c1cc2c(N[C@@H](c3ccc4c(c3)S(=O)(=O)CCC4)C(C)C)ncnc2[nH]1 [ASAP-0008685] | 104.0
CNCc1cc(-c2cc3c(N[C@@H](c4ccc5c(c4)S(=O)(=O)CCC5)C(C)C)ncnc3[nH]2)co1 [ASAP-0010745] | 90.5

Same assay, conditions: In vitro MDR1-MDCKII permeability, recovery A to B, no inhibitor

SMILES | perc_recovery_a_to_b_mean [%]
CC(C)[C@H](Nc1ncnc2[nH]c(-c3cnn(C)c3C#N)cc12)c1ccc2c(c1)OCCO2 [ASAP-0010980] | 39.3
CC(C)[C@@H](Nc1ncnc2[nH]c(-c3cnn(C)c3C#N)cc12)c1ccc2c(c1)OCCO2 [ASAP-0011033] | 31.2
